Consider 16 compounds from article PMC5050486 (Scientific Reports, 2016).

Counter-ions that a name gives are not always drawn. Like-named read-outs stand apart in the source and are kept apart here. Where a SMILES comes first, the peptide text is derived from it. Where no end group is shown, it is not given here.

What is called IC50 is the point on the concentration scale where inhibition reaches its midpoint. For orientation: inhibition means the change of the read-out against control, counted positive when it falls.

Data set [1] deals with anthrax LF (Bacillus anthracis, UniProt P15917). The data set is described as follows: biochemical. As to conditions: for inhibition at 33 µM: read-out: Percent Inhibition with 33 μM of drug, LF.
Data set [2] deals with T1, human furin (Homo sapiens, UniProt P09958).
T1 construct: purchased New England Biolabs
The data set is described as follows: Host protease FRET test, furin. It counts as biochemical. As to conditions: for inhibition at 33 µM: read-out: Percent Inhibition with 33 μM of drug, Furin.

Data set [3] deals with T2, calpain 1 (Homo sapiens, UniProt P07384).
T2 construct: purchased BioVision
T2 sequence (P07384 1-714): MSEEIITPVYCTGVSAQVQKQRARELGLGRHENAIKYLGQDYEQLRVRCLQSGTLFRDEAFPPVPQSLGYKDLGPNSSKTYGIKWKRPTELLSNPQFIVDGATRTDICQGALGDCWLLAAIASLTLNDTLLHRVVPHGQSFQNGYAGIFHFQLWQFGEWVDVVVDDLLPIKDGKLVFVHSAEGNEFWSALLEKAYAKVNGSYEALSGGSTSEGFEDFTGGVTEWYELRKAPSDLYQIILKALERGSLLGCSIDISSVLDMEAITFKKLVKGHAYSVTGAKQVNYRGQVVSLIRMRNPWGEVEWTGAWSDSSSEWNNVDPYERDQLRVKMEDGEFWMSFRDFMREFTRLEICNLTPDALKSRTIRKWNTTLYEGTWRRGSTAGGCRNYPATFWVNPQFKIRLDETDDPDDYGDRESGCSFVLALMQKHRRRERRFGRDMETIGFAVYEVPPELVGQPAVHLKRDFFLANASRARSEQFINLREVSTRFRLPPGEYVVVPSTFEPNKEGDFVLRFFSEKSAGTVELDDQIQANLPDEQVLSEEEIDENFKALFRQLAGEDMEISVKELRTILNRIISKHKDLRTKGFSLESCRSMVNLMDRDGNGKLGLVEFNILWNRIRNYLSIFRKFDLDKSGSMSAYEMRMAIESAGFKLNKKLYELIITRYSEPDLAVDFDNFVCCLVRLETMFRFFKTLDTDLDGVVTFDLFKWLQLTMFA
T2 sequence (P04632 1-268 partner): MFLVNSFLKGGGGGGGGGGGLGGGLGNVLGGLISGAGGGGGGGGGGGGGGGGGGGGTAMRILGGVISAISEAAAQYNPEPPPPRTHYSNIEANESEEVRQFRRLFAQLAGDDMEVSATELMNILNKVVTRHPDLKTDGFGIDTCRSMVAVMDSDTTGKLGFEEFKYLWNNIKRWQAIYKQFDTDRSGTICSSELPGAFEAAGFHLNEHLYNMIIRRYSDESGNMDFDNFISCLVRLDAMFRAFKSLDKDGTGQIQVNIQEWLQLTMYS
The data set is described as follows: Host protease FRET test, calpain. Format: biochemical. As to conditions: for inhibition at 33 µM: read-out: Percent Inhibition with 33 μM of drug, Calpain.

Data set [4] addresses cathepsin B (Homo sapiens, UniProt P07858). As to the kind of experiment: Host protease FRET test, cathepsin B. It counts as biochemical. As to conditions: 33 μM drug, N/I = no FRET inhibition; for inhibition at 33 µM: read-out: Percent Inhibition with 33 μM of drug, Cath B.
The target in data set [5] is T3, caspase-1 (Homo sapiens, UniProt P29466).
T3 construct: purchased BioVision
T3 sequence (P29466 120-404): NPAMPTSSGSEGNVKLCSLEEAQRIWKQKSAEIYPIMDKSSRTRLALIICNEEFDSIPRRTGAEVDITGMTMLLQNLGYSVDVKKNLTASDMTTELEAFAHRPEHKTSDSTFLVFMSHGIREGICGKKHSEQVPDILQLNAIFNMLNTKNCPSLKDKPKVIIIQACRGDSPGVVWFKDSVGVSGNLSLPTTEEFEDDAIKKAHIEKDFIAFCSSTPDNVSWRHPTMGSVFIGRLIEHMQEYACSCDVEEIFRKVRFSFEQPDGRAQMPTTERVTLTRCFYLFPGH
As to the kind of experiment: Host protease FRET test, caspase-1. Format: biochemical. As to conditions: read-out: Percent Inhibition with 33 μM of drug, Casp 1.

The target of data set [6] is T4, caspase-3 (Homo sapiens, UniProt P42574).
T4 construct: purchased BioVision
T4 sequence (P42574 29-277): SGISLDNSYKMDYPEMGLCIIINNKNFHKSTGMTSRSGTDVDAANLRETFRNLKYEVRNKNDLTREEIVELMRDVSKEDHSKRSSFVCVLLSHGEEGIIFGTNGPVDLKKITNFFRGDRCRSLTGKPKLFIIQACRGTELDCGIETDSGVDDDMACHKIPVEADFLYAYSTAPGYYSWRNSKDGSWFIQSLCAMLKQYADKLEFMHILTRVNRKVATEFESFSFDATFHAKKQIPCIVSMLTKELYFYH
The data set is described as follows: Host protease FRET test, caspase-3. As to conditions: for inhibition at 33 µM: read-out: Percent Inhibition with 33 μM of drug, Casp 3. It counts as biochemical.

In data set [7] the test system is LF-PA treated mouse macrophage RAW264.7 cells. It counts as cell-based.
Data set [8] relates to Pseudomonas aeruginosa exotoxin A treated RAW264.7 cells. Format: cell-based, mouse.
Data set [9] concerns Cholera toxin treated RAW264.7 cells. It counts as cell-based, mouse.
For data set [10] the following is noted: cited from earlier work.
[11] abbreviates: 33 μM drug, FRET, N/I = no FRET inhibition.

Chain of anthrax LF (P15917 34-809 limits assumed): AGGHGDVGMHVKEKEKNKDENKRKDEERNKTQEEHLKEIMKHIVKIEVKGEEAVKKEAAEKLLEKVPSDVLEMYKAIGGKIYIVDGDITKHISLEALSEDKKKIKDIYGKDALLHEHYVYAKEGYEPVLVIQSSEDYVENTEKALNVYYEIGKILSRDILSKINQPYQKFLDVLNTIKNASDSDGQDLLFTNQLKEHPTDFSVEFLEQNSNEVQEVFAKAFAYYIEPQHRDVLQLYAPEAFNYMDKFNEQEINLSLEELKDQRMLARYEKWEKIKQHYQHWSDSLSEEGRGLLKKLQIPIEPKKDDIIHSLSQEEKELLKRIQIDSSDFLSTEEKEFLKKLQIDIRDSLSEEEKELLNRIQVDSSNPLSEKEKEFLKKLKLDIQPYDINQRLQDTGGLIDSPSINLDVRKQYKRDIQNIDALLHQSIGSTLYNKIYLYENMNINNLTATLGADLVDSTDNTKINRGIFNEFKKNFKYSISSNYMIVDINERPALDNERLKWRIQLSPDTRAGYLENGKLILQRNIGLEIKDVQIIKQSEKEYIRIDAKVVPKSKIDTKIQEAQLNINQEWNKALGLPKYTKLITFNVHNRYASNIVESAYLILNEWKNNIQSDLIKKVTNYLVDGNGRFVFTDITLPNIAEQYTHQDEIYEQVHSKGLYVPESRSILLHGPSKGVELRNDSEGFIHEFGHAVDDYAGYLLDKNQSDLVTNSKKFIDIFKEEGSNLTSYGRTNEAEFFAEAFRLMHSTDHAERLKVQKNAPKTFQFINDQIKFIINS
T1 sequence (P09958 108-794): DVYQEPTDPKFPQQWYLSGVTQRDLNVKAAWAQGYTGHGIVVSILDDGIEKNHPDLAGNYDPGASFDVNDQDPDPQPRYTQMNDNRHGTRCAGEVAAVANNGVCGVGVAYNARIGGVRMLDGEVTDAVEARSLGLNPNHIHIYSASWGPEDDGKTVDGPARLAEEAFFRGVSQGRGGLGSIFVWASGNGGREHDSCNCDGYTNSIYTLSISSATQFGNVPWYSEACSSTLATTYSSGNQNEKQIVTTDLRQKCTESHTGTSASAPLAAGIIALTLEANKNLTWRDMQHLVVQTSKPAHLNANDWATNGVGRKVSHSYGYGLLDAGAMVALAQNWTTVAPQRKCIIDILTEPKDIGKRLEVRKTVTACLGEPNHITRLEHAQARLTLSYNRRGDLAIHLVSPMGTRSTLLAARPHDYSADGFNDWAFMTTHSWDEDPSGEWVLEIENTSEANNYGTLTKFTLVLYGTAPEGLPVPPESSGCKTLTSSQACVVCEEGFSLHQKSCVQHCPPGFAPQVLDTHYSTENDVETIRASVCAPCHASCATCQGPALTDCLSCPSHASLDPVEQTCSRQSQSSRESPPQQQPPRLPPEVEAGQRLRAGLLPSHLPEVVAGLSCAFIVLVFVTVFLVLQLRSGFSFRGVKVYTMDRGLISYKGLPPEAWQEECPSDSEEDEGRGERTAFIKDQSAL

Turning to `CCCCCCCCCCCCCCCC(=O)OC[C@H](O)[C@H]1OC(=O)C(O)=C1O` [Ascorbic acid 6-palmitate], half-maximal inhibition in data set [1] (IC50) required 460 ± 260 nM. Also, the inhibition at 33 µM in data set [1] was 99 ± 1.9%; in data set [2] (setting [11]), 16 ± 0.67%; in data set [3] (setting [11]) it was 24 ± 19.4%; in data set [5] (setting [11]) it was 18 ± 1.12%; in data set [6] (setting [11]), 88 ± 2.9%. The “Percent Inhibition with 33 μM of drug, Cath B” value (“Percent Inhibition … Cath B” for short) in data set [4] is reported as “N/I”. Also, the “Protection against LF-PA mediated cell killing” value in data set [7] is listed as “complete protection”. The “Protection against PE-mediated cell killing” value in data set [8] was “substantial protection”. Moreover, the “Protection against CT-mediated cell killing” value in [9] is on record as “substantial protection”. Moreover, the “Critical Micelle Concentration (CMC)” value in [10] is reported as 0.8 mM.

`CCOc1nc2cccc(C(=O)OC(C)OC(=O)OC3CCCCC3)c2n1Cc1ccc(-c2ccccc2-c2nnn[nH]2)cc1` (centres unmarked) [Candesartan cilexetil] had an IC50 in data set [1] of 400 ± 20 nM. In addition, the inhibition at 33 µM in [1] is 100 ± 0.07%; in data set [2] (setting [11]), 88 ± 0.12%; in data set [4], 10 ± 3.1%; in [5] (setting [11]) it was 16 ± 0.1%. The “Percent Inhibition with 33 μM of drug, Calpain” value in data set [3] (setting [11]) is listed as “N/I”. The “Percent Inhibition with 33 μM of drug, Casp 3” value (“Percent Inhibition … Casp 3” below) in data set [6] (setting [11]) was “N/I”.

The compound `CCCCCCCCCCCCCCCC[N+](C)(C)Cc1ccccc1` [Cetalkonium chloride] returned an IC50 in data set [1] of 160 ± 90 nM. Besides, the inhibition at 33 µM in [1] stood at 106 ± 1.21%; in data set [2] (setting [11]), 8 ± 6.1%; in [3] (setting [11]), 68 ± 14.8%; in data set [5] (setting [11]), 32 ± 1.17%. Also, the “Percent Inhibition … Cath B” value in [4] is reported as “N/I”. Moreover, the “Percent Inhibition … Casp 3” value in [6] (setting [11]) is recorded as “N/I”.

For the compound `CCCCC(CC)COC(=O)CC(C(=O)OCC(CC)CCCC)S(=O)(=O)O` (centres unmarked) [Docusate sodium], in data set [1], half-maximal inhibition (IC50) required 670 ± 50 nM. The inhibition at 33 µM was determined as 95 ± 0.28% in [1], 69 ± 0.13% in data set [2] (setting [11]), 130 ± 0.19% in [3] (setting [11]) and 35 ± 0.01% in data set [5] (setting [11]). In addition, the “Percent Inhibition … Cath B” value in data set [4] is listed as “N/I”. For the same compound, the “Percent Inhibition … Casp 3” value in data set [6] (setting [11]) is reported as “N/I”.

`CCCCCCCCCCCC[N+](C)(C)CCOc1ccccc1` [Domiphen bromide] returned a 50% inhibitory concentration (IC50) in [1] of 290 ± 30 nM. The inhibition at 33 µM turned out to be 103 ± 0.82% in data set [1], 7 ± 6.64% in data set [2] (setting [11]), 23 ± 1.5% in data set [4] and 17 ± 2.17% in data set [5] (setting [11]). Moreover, the “Percent Inhibition with 33 μM of drug, Calpain” value in data set [3] (setting [11]) is given as “N/I”. Moreover, the “Percent Inhibition … Casp 3” value in data set [6] (setting [11]) is recorded as “N/I”.

As for `CSCC[C@H](N)C(=O)N[C@@H](C)C(=O)N[C@@H](CCCNC(=N)N)C(=O)N[C@@H](Cc1ccc(O)cc1)C(=O)N[C@@H](CCCNC(=N)N)C(=O)N[C@@H](CS)C(=O)N[C@@H](CS)C(=O)N[C@@H](CCCNC(=N)N)C(=O)N[C@@H](CO)C(=O)N[C@@H](CCC(N)=O)C(=O)N[C@@H](CO)C(=O)N[C@@H](CCCNC(=N)N)C(=O)N[C@@H](CO)C(=O)N[C@@H](CCCNC(=N)N)C(=O)N[C@@H](Cc1ccc(O)cc1)C(=O)N[C@@H](Cc1ccc(O)cc1)C(=O)N[C@@H](CCCNC(=N)N)C(=O)O` [Human Sperm Protamine (1-17)] (H-MARYRCCRSQSRSRYYR-OH; N-terminus and C-terminus assumed), the inhibition at 33 µM in data set [1] stood at 37 ± 0.7%.

In the case of `CSCC[C@H](NC(=O)[C@H](C)NC(=O)[C@@H](N)CCCNC(=N)N)C(=O)N[C@@H](CCCNC(=N)N)C(=O)N[C@@H](CS)C(=O)N[C@@H](CS)C(=O)N[C@@H](CCCNC(=N)N)C(=O)N1CCC[C@H]1C(=O)N[C@@H](CCCNC(=N)N)C(=O)N[C@@H](Cc1ccc(O)cc1)C(=O)N[C@@H](CCCNC(=N)N)C(=O)N1CCC[C@H]1C(=O)N[C@@H](CCCNC(=N)N)C(=O)N[C@@H](CS)C(=O)N[C@@H](CCCNC(=N)N)C(=O)N[C@@H](CCCNC(=N)N)C(=O)N[C@@H](Cc1c[nH]cn1)C(=O)O` [Human Sperm Protamine (35-51)] (H-RAMRCCRPRYRPRCRRH-OH; N-terminus and C-terminus assumed), the inhibition at 33 µM in data set [1] came to 55 ± 0.9%.

Consider `CCCCCCCCCCCCc1ccccc1S(=O)(=O)O` [Sodium dodecyl benzenesulfonate], for which the IC50 in data set [1] (read-out: LF IC50) was 590 ± 80 nM. The inhibition at 33 µM in data set [1] amounted to 104 ± 0.4%; in data set [2] (setting [11]) it was 6 ± 3.34%; in data set [3] (setting [11]), 26 ± 7.01%; in data set [4] it was 96 ± 2.5%; in data set [5] (setting [11]), 14 ± 2.06%; in data set [6] (setting [11]) it was 77 ± 2.5%.

In data set [1], `CCCCCCCCCCCCOS(=O)(=O)O` [Sodium lauryl sulfate] gave a concentration for half-maximal inhibition (IC50) of 2900 ± 80 nM. Further, the inhibition at 33 µM in data set [1] was found to be 93 ± 0.57%; in [2] it was 2 ± 4.56%; in data set [3] it was 95 ± 6.02%; in [5], 7 ± 3.06%; in data set [6], 83 ± 2.7%. The “Critical Micelle Concentration (CMC)” value in data set [10] is 8 mM.

For “MARYRCCRSQSRSRYYRQRQRSRRRRRRSCQTRRRAMRCCRPRYRPRCRRH (cysteines drawn unpaired) [Human Sperm Protamine (1-51)]”, the inhibition at 33 µM in [1] was 88 ± 1.2%; in data set [2] (setting [11]) it was 97 ± 1.7%.

In the case of “MPRRRRSSSR [Salmon Sperm Protamine (1-10)]”, in data set [1], it took 298000 ± 10 nM to reach half-maximal inhibition (IC50) and the inhibition at 33 µM was found to be 28 ± 1%. Moreover, in [2] (setting [11]), the “Percent Inhibition with 33 μM of drug, Furin” value was “N/I”.

“MPRRRRSSSRPVRRRRRPRVSR [Salmon Sperm Protamine (1-22)]”: in data set [1], the IC50 turned out to be 1000 ± 40 nM and the inhibition at 33 µM came out at 98 ± 0.6%. Moreover, the inhibition at 33 µM in data set [2] (setting [11]) was determined as 91 ± 1.8%.

“PVRRRRRPRVSR [Salmon Sperm Protamine (11-22)]” yielded an IC50 in data set [1] of 5000 ± 130 nM. The inhibition at 33 µM in [1] worked out at 95 ± 0.1%; in data set [2] (setting [11]), 84 ± 33%.

As to “PVRRRRRPRVSRRRRRRGGRRRR [Salmon Sperm Protamine (11-33)]”, in [1], the half-maximal inhibitory concentration (IC50) came out at 10000 ± 40 nM and the inhibition at 33 µM came to 99 ± 0.2%. For the same compound, in data set [2] (setting [11]), the inhibition at 33 µM is 86 ± 1.2%.

Consider “QRQRSRRRRRRSCQTRR [Human Sperm Protamine (18-34)]”, for which, in [1], half-maximal inhibition (IC50) required 24000 ± 150 nM and the inhibition at 33 µM amounted to 72 ± 2.1%.

Regarding “RRRRRGGRRRR [Salmon Sperm Protamine (23-33)]”, in data set [1], it took 15000 ± 10 nM to reach half-maximal inhibition (IC50) and the inhibition at 33 µM worked out at 93 ± 2.4%. Moreover, in [2] (setting [11]), the inhibition at 33 µM came out at 150 ± 5.3%.
